Like-named read-outs stand apart in the source and are kept apart here.
Key:
Human GLP-1 receptor = biological target: T1, Human GLP-1 receptor (Homo sapiens, UniProt P43220); assay: Measurement of GLP-1 receptor agonist activity (cAMP assay); format: cell-based
T1 construct: expressed in transfected cells
In short: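 hGLP-1R/CHO-K1 cells in HBSS with 0.1% BSA, 20 mM HEPES, 0.1 mM IBMX and 0.2 mM RO20-1724 exposed to compound plus forskolin (400 μM stock) for 1 h at 37 °C. Intracellular cAMP read by HTRF (cAMP-d2/anti-cAMP cryptate, 1 h at room temperature).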

[1] = Metabolism stability test (Test Example 2-2); format: in vitro ADME; conditions: pooled human liver microsomes 0.5 mg protein/mL, 37° C., 30 minutes, 1 mmol/L NADPH (oxidative reaction), compound concentration 0.5 μmol/L
Protocol: Test Example 2-2: Metabolism Stability Test
Using commercially available pooled human liver microsomes, a compound of the present invention is reacted for a constant time, and a remaining rate is calculated by comparing a reacted sample and an unreacted sample, thereby, a degree of metabolism in liver is assessed.
A reaction is performed (oxidative reaction) at 37° C. for 0 minute or 30 minutes in the presence of 1 mmol/L NADPH in 0.2 mL of a buffer (50 mmol/L Tris-HCl pH 7.4, 150 mmol/L potassium chloride, 10 mmol/L magnesium chloride) containing 0.5 mg protein/mL of human liver microsomes. After the reaction, 70 μL of the reaction solution is added to 140 μL of a methanol/acetonitrile=1/1 (v/v), mixed and centrifuged at 3000 rpm for 15 minutes. The compound of the present invention in the centrifuged supernatant is quantified by LC/MS/MS or solid-phase extraction (SPE)/MS. The ratio of the amount of the compound after the reaction, with respect to the amount of the compound at 0 minutes of the reaction defined as 100%, is shown as the residual rate. Hydrolysis reaction is performed in the absence of NADPH, and glucuronidation reaction is performed in the presence of 5 mmol/L UDP-glucuronic acid instead of NADPH. Then, the same operation is carried out. The dilution concentration or the dilution solvent are changed as necessary.
The compounds of the present invention were tested essentially as described above.

[2] = CHO-K1, hGLP-1R/CHO-K1 cells, cAMP, 100% = human GLP-1 (7-36) at 2 nM, 0% = DMSO only, read-out: Emax(%)
[3] = hGLP-1R/CHO-K1 cells, cAMP increase, 37° C. 1 hour
[4] = CHO-K1, maximum effect, cAMP increase in GLP-1 R/CHO-K1 cells, 2 nM human GLP-1 (7-36) = 100%, DMSO only = 0%, read-out: Emax
[5] = cAMP increase in GLP-1 R/CHO-K1 cells, 2 nM human GLP-1 (7-36) = 100%, DMSO only = 0%

T1 sequence (P43220 24-463): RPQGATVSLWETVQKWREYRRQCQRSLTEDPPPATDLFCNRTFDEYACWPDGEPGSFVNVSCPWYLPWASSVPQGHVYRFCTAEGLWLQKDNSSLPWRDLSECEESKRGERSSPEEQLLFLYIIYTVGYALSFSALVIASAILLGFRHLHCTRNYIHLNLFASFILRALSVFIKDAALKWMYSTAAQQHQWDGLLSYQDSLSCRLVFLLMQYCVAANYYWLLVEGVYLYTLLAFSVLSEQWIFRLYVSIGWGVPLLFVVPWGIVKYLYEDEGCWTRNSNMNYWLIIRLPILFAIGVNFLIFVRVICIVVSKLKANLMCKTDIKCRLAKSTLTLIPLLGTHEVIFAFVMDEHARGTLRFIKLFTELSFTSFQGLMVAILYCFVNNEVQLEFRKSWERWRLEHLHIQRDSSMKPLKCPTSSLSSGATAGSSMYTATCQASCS

Row | SMILES | Emax (Human GLP-1 receptor; [2]) | EC50 (Human GLP-1 receptor; [3]) | residual rate of the compound [1] | Emax (Human GLP-1 receptor; [4]) | EC50 (Human GLP-1 receptor; [5])
1 | O=C(O)c1cc(F)c2nc(CN3CCc4cc(C(F)(F)F)c(OCc5ccc(Cl)cc5F)cc4C3)n(C[C@@H]3CCO3)c2c1 [Compound I-033] | 109% | 1.49 nM | 87.1% | – | –
2 | C[C@H]1c2nc(OCc3ccc(Cl)cc3F)c(C(F)(F)F)cc2CCN1Cc1nc2ccc(C(=O)O)cc2n1C[C@@H]1CCO1 [Compound I-145] | 108% | 0.0938 nM | 94.0% | – | –
3 | O=C(O)c1ccc2nc(Cc3ccc4nc(C(F)(F)F)c(OCc5ccc(Cl)cc5F)nc4c3F)n(C[C@@H]3CCO3)c2c1 [Compound I-109] | 114% | 0.472 nM | 99.6% | – | –
4 | C[C@H]1c2cc(OCc3c(F)cc(Cl)cc3F)c(C(F)(F)F)cc2CCN1Cc1nc2c(F)cc(C(=O)O)cc2n1C[C@@H]1CCO1 [Compound I-129] | 122% | 0.329 nM | – | – | –
5 | O=C(O)c1ccc2nc(CN3CCc4cc(C(F)(F)F)c(OCc5ccc(Cl)cc5Cl)cc4C3)n(C[C@@H]3CCO3)c2c1 [Compound I-099] | 114% | 1.43 nM | – | – | –
6 | O=C(O)c1ccc2nc(CN3CCc4cc(C(F)(F)F)c(OCc5ccc(C(F)F)cc5F)cc4C3)n(C[C@@H]3CCO3)c2c1 [Compound I-056] | 110% | 6.04 nM | – | – | –
7 | C[C@H]1c2nc(OCc3cc(F)c(Cl)cc3F)c(C(F)(F)F)cc2CCN1Cc1nc2ccc(C(=O)O)cc2n1C[C@@H]1CCO1 [Compound I-257] | – | – | – | 115% | 0.0747 nM
8 | O=C(O)c1ccc2nc(CN3CCc4cc(C(F)(F)F)c(OCc5ccc(Cl)cc5F)nc4C3)n(C[C@@H]3CCO3)c2n1 [Compound I-306] | – | – | – | 98.7% | 0.876 nM
9 | CCn1ccc(COc2cc3c(cc2C(F)(F)F)CCN(Cc2nc4ccc(C(=O)O)cc4n2C[C@@H]2CCO2)C3)n1 [Compound I-148] | 95% | 32.5 nM | – | – | –
10 | C[C@H]1c2cc(OCc3ccccc3Cl)c(C(F)(F)F)cc2CCN1Cc1nc2c(F)cc(C(=O)O)cc2n1C[C@@H]1CCO1 [Compound I-209] | 112% | 0.984 nM | – | – | –
11 | COc1cc(C(=O)O)cc2c1nc(CN1CCc3cc(C(F)(F)F)c(OCc4ccc(F)cc4F)nc3[C@@H]1C)n2C[C@@H]1CCO1 [Compound I-282] | – | – | – | 114% | 0.00918 nM
12 | Cc1csc(COc2cc3c(cc2C(F)(F)F)CCN(Cc2nc4c(F)cc(C(=O)O)cc4n2C[C@@H]2CCO2)[C@H]3C)n1 [Compound I-204] | 117% | 0.509 nM | – | – | –
13 | C[C@H]1c2cc(OCc3ccc(C4CC4)cc3)c(Cl)cc2CCN1Cc1nc2c(F)cc(C(=O)O)cc2n1C[C@@H]1CCO1 [Compound I-333] | – | – | – | 116% | 8.05 nM
14 | COc1cc(F)c(COc2cc3c(cc2C(F)(F)F)CCN(Cc2nc4ccc(C(=O)O)cc4n2C[C@@H]2CCO2)C3)c(F)c1 [Compound I-153] | 104% | 5.34 nM | – | – | –

More lines, now with the values ahead:

Row | Emax (Human GLP-1 receptor; [2]) | EC50 (Human GLP-1 receptor; [3]) | residual rate of the compound [1] | Emax (Human GLP-1 receptor; [4]) | EC50 (Human GLP-1 receptor; [5]) | SMILES
15 | 97.7% | 3.76 nM | > 99.9% | – | – | C[C@H]1c2cc(OCc3ccc(F)cc3)c(C(F)(F)F)cc2CCN1Cc1nc2ccc(C(=O)O)cc2n1C[C@@H]1CCO1 [Compound I-123]
16 | 129% | 0.298 nM | 87.1% | – | – | C[C@H]1c2cc(OCc3ccc(Cl)cc3F)c(C(F)(F)F)cc2CCN1Cc1nc2ccc(C(=O)O)cc2n1C[C@@H]1CCO1 [Compound I-035]
17 | 117% | 0.327 nM | 96.9% | – | – | C[C@H]1c2cc(OCc3ccc(Cl)cc3F)c(C(F)(F)F)cc2CCN1Cc1nc2ccc(C(=O)O)c(F)c2n1C[C@@H]1CCO1 [Compound I-117]
18 | 118% | 0.0524 nM | 92.4% | – | – | C[C@H]1c2nc(OCc3ccc(Cl)cc3F)c(C(F)(F)F)cc2CCN1Cc1nc2ccc(C(=O)O)c(F)c2n1C[C@@H]1CCO1 [Compound I-160]
19 | 97% | 1.22 nM | – | – | – | C[C@H]1c2cc(OCc3ccc(F)cc3)c(C(F)(F)F)cc2CCN1Cc1nc2ccc(C(=O)O)c(F)c2n1C[C@@H]1CCO1 [Compound I-122]
20 | 109% | 1.08 nM | – | – | – | COc1ccc(COc2cc3c(cc2C(F)(F)F)CCN(Cc2nc4ccc(C(=O)O)c(F)c4n2C[C@@H]2CCO2)[C@H]3C)cc1 [Compound I-190]
21 | 102% | 0.577 nM | – | – | – | C[C@H]1c2cc(OCc3cc(F)c(Cl)cc3F)c(C(F)(F)F)cc2CCN1Cc1nc2ccc(C(=O)O)c(F)c2n1C[C@@H]1CCO1 [Compound I-200]
